Like-named read-outs stand apart in the source and are kept apart here.
What was measured:
[1] = tested on: RPMI-8226 (Leukemia); test: NCI-60 screen (SRB, 48 h); settings: Homo sapiens; for GI50: RPMI-8226; for IC (TGI): RPMI-8226, 48 h, read-out: TGI
[2] = tested on: SF-268 (CNS cancer); test: NCI-60 screen (SRB, 48 h); settings: Homo sapiens; for GI50: SF-268; for IC (TGI): SF-268, 48 h, read-out: TGI
[3] = tested on: MDA-MB-468 (Breast cancer); test: cells; settings: Homo sapiens; for GI50: MDA-MB-468; for IC (TGI): MDA-MB-468, 48 h, read-out: TGI; for CC50: MDA-MB-468, read-out: LC50
[4] = tested on: OVCAR-8 (Ovarian cancer); test: NCI-60 screen (SRB, 48 h); settings: Homo sapiens; for GI50: OVCAR-8; for IC (TGI): OVCAR-8, 48 h, read-out: TGI
[5] = tested on: A2780 (ovarian carcinoma); test: SRB cytotoxicity assay, 72 h; type: cell-based, human; settings: Homo sapiens; A2780, 72 h, cut-off 30 µM; read-out: EC50
Method: (§1) The cytotoxicity of compounds 1–20 was evaluated by means of a colorimetric sulforhodamine B (SRB) assay. For all compounds, the EC50 values were determined for the human tumor cell lines A375 (malignant melanoma), HT29 (colorectal carcinoma), MCF-7 (breast carcinoma), A2780 (ovarian carcinoma), FaDu (hypopharyngeal carcinoma), and NIH 3T3 (non-malignant mouse fibroblasts).
(§2) In short, exponentially growing cells were seeded into 96-well plates on day 0 at the appropriate cell densities to prevent confluence of the cells during the period of experiment. After 24 h, the cells were treated with serial dilutions of the compounds (0–30 µM) for 72 h. The final concentration of DMSO never exceeded 0.5%, which was non-toxic to the cells. After a 72 h treatment, the supernatant medium from the 96-well plates was discarded, and the cells were fixed with 10% TCA. For a thorough fixation, the plates were allowed to rest at 4 °C. After fixation, the cells were washed in a strip washer. The washing was done four times with water using alternate dispensing and aspiration procedures. The plates were then dyed with 100 µL of 0.4% SRB for about 20 min. After dying, the plates were washed with 1% acetic acid to remove the excess of the dye and allowed to air-dry overnight. Tris base solution (200 µL, 10 mM) was added to each well and absorbance was measured at λ = 570 nm (using a 96 well plate reader, Tecan Spectra, Crailsheim, Germany). The percentages of surviving cells relative to untreated controls were determined.

[6] = tested on: A375 (malignant melanoma); test: SRB cytotoxicity assay, 72 h; type: cell-based, human; settings: Homo sapiens, A-375, 72 h, A375, 72 h, cut-off 30 µM; read-out: EC50
Method: as §1, §2

[7] = tested on: FaDu (hypopharyngeal carcinoma); test: SRB cytotoxicity assay, 72 h; type: cell-based, human; settings: Homo sapiens, cut-off 30 µM, read-out: EC50
Method: as §1, §2

[8] = tested on: MCF-7 (breast carcinoma); test: SRB cytotoxicity assay, 72 h; type: cell-based, human; settings: Homo sapiens, MCF7; MCF-7, 72 h, cut-off 30 µM; read-out: EC50
Method: as §1, §2

[9] = tested on: HT29 (colorectal carcinoma); test: SRB cytotoxicity assay, 72 h; type: cell-based, human; settings: Homo sapiens, HT-29; HT29, 72 h, cut-off 30 µM; read-out: EC50
Method: as §1, §2

[10] = tested on: Breast cancer subpanel; test: NCI-60 screen, subpanel; settings: Homo sapiens; for IC (TGI): 48 h, read-out: TGI MG_MID; for GI50: read-out: GI50 MG_MID; for CC50: read-out: LC50 MG_MID
[11] = tested on: NCI-H522 (NSC lung cancer); test: NCI-60 screen (SRB, 48 h); settings: Homo sapiens; for GI50: NCI-H522; for IC (TGI): NCI-H522, 48 h, read-out: TGI; for CC50: NCI-H522, read-out: LC50
[12] = tested on: NCI-H23 (NSC lung cancer); test: NCI-60 screen (SRB, 48 h); settings: Homo sapiens; for GI50: NCI-H23; for IC (TGI): NCI-H23, 48 h, read-out: TGI
[13] = tested on: MDA-MB-435 (Melanoma); test: NCI-60 screen (SRB, 48 h); type: cell-based
[14] = tested on: SK-MEL-5 (Melanoma); test: NCI-60 screen (SRB, 48 h); settings: for GI50: SK-MEL-5; for IC (TGI): SK-MEL-5, 48 h, read-out: TGI
[15] = tested on: Melanoma subpanel; test: NCI-60 screen, subpanel; settings: Homo sapiens; for IC (TGI): 48 h, read-out: TGI MG_MID; for GI50: read-out: GI50 MG_MID; for CC50: read-out: LC50 MG_MID
[16] = tested on: OVCAR-4 (Ovarian cancer); test: NCI-60 screen (SRB, 48 h); type: cell-based; settings: Homo sapiens; for IC (TGI): OVCAR-4, 48 h; for GI50: read-out: GI50
[17] = tested on: 786-0 (Renal cancer); test: NCI-60 screen (SRB, 48 h); settings: Homo sapiens; for GI50: 786-0; for IC (TGI): 786-0, 48 h, read-out: TGI
[18] = tested on: NSC lung cancer subpanel; test: NCI-60 screen, subpanel; settings: Homo sapiens; for IC (TGI): 48 h, read-out: TGI MG_MID; for GI50: read-out: GI50 MG_MID; for CC50: read-out: LC50 MG_MID
[19] = tested on: NCI-H460 (NSC lung cancer); test: NCI-60 screen (SRB, 48 h); settings: Homo sapiens; for GI50: NCI-H460; for IC (TGI): NCI-H460, 48 h, read-out: TGI
[20] = tested on: HCC-2998 (Colon cancer); test: NCI-60 screen (SRB, 48 h); settings: for GI50 / IC (TGI): Homo sapiens; for GI50: HCC 2998; for IC (TGI): HCC 2998, 48 h, read-out: TGI
[21] = tested on: BT-549 (Breast cancer); test: NCI-60 screen (SRB, 48 h); type: cell-based; settings: Homo sapiens; for GI50: BT-549; for IC (TGI): BT-549, 48 h
[22] = tested on: SF-539 (CNS cancer); test: NCI-60 screen (SRB, 48 h); settings: Homo sapiens; for GI50: SF-539; for IC (TGI): SF-539, 48 h, read-out: TGI
[23] = tested on: ACHN (Renal cancer); test: NCI-60 screen (SRB, 48 h); settings: for GI50 / IC (TGI): Homo sapiens; for IC (TGI): 48 h, read-out: TGI
[24] = tested on: UACC-257 (Melanoma); test: NCI-60 screen (SRB, 48 h); settings: Homo sapiens; for GI50: UACC-257; for IC (TGI): UACC-257, 48 h, read-out: TGI; for CC50: UACC-257, read-out: LC50

C=C(C)[C@@H]1CCC=C2CC[C@]3(C)[C@H](CC[C@@H]4[C@@]5(C)CCCNC(C)(C)[C@@H]5CC[C@]43C)[C@H]21 [Compound 8]
GI50 [1]: 2.26 µM
IC (TGI) [1]: 4.73 µM
GI50 [2]: 1.91 µM
IC (TGI) [2]: 3.64 µM
GI50 [3]: 1.78 µM
IC (TGI) [3]: 3.43 µM
CC50 [3]: 6.6 µM
GI50 [4]: 1.99 µM
IC (TGI) [4]: 3.94 µM
CC50 ([4]; OVCAR-8, read-out: LC50): 7.79 µM
EC50 [5]: 1.88 ± 0.2 µM
EC50 [6]: 1.78 ± 0.1 µM
EC50 [7]: 1.75 ± 0.2 µM
EC50 [8]: 1.41 ± 0.1 µM
EC50 [9]: 1.3 ± 0.2 µM
IC (TGI) [10]: 3.47 µM
GI50 [10]: 1.71 µM
CC50 [10]: 8.38 µM
GI50 [11]: 1.93 µM
IC (TGI) [11]: 3.5 µM
CC50 [11]: 6.35 µM
GI50 [12]: 1.83 µM
IC (TGI) [12]: 3.4 µM
GI50 ([13]; Homo sapiens, MDA-MB-435): 1.87 µM
IC (TGI) ([13]; Homo sapiens, MDA-MB-435, 48 h, read-out: TGI): 3.49 µM
CC50 ([13]; Homo sapiens, MDA-MB-435; read-out: LC50 (the source's name)): 6.51 µM
GI50 ([14]; Homo sapiens): 1.7 µM
IC (TGI) ([14]; Homo sapiens): 3.14 µM
IC (TGI) [15]: 3.46 µM
GI50 [15]: 1.84 µM
CC50 [15]: 6.73 µM
IC (TGI) [16]: 3.39 µM
GI50 ([16]; OVCAR-4): 1.86 µM
CC50 ([16]; OVCAR-4, read-out: LC50 (the source's name)): 6.17 µM
GI50 [17]: 1.76 µM
IC (TGI) [17]: 3.51 µM
IC (TGI) [18]: 3.3 µM
GI50 [18]: 1.73 µM
CC50 [18]: 6.18 µM
GI50 [19]: 1.22 µM
IC (TGI) [19]: 2.81 µM
Growth % of the Most Sensitive Cell Lines ([20]; HCC-2998, 1 dose 10 µM): −93.75%
GI50 [20]: 1.31 µM
IC (TGI) [20]: 2.76 µM
GI50 [21]: 1.68 µM
IC (TGI) [21]: 3.23 µM
GI50 [22]: 1.52 µM
IC (TGI) [22]: 2.99 µM
GI50 [23]: 1.84 µM
IC (TGI) [23]: 3.26 µM
GI50 [24]: 2.19 µM
IC (TGI) [24]: 4.29 µM
CC50 [24]: 8.38 µM

C=C(C)[C@@H]1CC[C@]2(C(=O)N[C@H](CO)Cc3ccccc3)CC[C@]3(C)[C@H](CC[C@@H]4[C@@]5(C)CCCNC(C)(C)[C@@H]5CC[C@]43C)[C@@H]12 [Compound 11]
GI50 [1]: 0.24 µM
IC (TGI) [1]: 0.63 µM
GI50 [2]: 1.56 µM
IC (TGI) [2]: 3.39 µM
GI50 [3]: 1.52 µM
IC (TGI) [3]: 3.03 µM
CC50 [3]: 6.01 µM
GI50 [4]: 1.12 µM
IC (TGI) [4]: 2.8 µM
EC50 [5]: 0.78 ± 0.4 µM
EC50 [6]: 1 ± 0.1 µM
EC50 [7]: 0.88 ± 0.1 µM
EC50 [8]: 1.17 ± 0.2 µM
EC50 [9]: 1.02 ± 0.03 µM
IC (TGI) [10]: 3.16 µM
GI50 [10]: 1.41 µM
CC50 [10]: 6.01 µM
GI50 [11]: 1.75 µM
IC (TGI) [11]: 3.35 µM
CC50 [11]: 6.4 µM
GI50 [12]: 1.6 µM
IC (TGI) [12]: 3.17 µM
IC (TGI) ([13]; Homo sapiens, MDA-MB-435, 48 h; read-out: TGI): 2.36 µM
GI50 ([13]; Homo sapiens, MDA-MB-435; read-out: GI50): 1.1 µM
GI50 ([14]; Homo sapiens): 1.67 µM
IC (TGI) ([14]; Homo sapiens): 3.07 µM
CC50 ([14]; Homo sapiens, SK-MEL-5, read-out: LC50): 5.64 µM
Growth % of the Most Sensitive Cell Lines ([14]; SK-MEL-5, 1 dose 10 µM): −95.48%
IC (TGI) [15]: 2.87 µM
GI50 [15]: 1.42 µM
CC50 [15]: 6.07 µM
IC (TGI) [16]: 0.94 µM
GI50 ([16]; OVCAR-4): 0.24 µM
GI50 [17]: 0.4 µM
IC (TGI) [17]: 1.6 µM
IC (TGI) [18]: 3.15 µM
GI50 [18]: 1.52 µM
CC50 [18]: 6.41 µM
GI50 [19]: 1.21 µM
IC (TGI) [19]: 2.77 µM
GI50 [20]: 1.61 µM
IC (TGI) [20]: 3.05 µM
GI50 [21]: 1.69 µM
IC (TGI) [21]: 3.32 µM
GI50 [22]: 1.73 µM
IC (TGI) [22]: 3.19 µM
Growth % of the Most Sensitive Cell Lines ([23]; 1 dose 10 µM): −95.87%
GI50 [23]: 1.71 µM
IC (TGI) [23]: 3.16 µM
GI50 [24]: 1.78 µM
IC (TGI) [24]: 3.34 µM
CC50 [24]: 6.25 µM

From PMC7914897, “Cytotoxic Potential of a-Azepano- and 3-Amino-3,4-SeCo-Triterpenoids” (International Journal of Molecular Sciences, 2021)
